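Assay format: 96-well plates, 48-hour exposure. TGI marks complete inhibition of growth.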
Key:
Experiment in all cases: NCI tumour cell line growth inhibition, 48 h
HL-60(TB) leukemia = system: HL-60(TB) leukemia
A498 renal = system: A498 renal
SNB-19 CNS = system: SNB-19 CNS
XF 498 CNS = system: XF 498 CNS
SNB-78 CNS = system: SNB-78 CNS
M14 melanoma = system: M14 melanoma
SF-539 CNS = system: SF-539 CNS
M19-MEL melanoma = system: M19-MEL melanoma
HCT-15 colon = system: HCT-15 colon
MOLT-4 leukemia = system: MOLT-4 leukemia
SF-295 CNS = system: SF-295 CNS
HT29 colon = system: HT29 colon
A549 NSCLC = system: A549 NSCLC
HCT-116 colon = system: HCT-116 colon
ACHN renal = system: ACHN renal
UACC-257 melanoma = system: UACC-257 melanoma
DLD-1 colon = system: DLD-1 colon
KM12 colon = system: KM12 colon
IGROV1 ovarian = system: IGROV1 ovarian
RXF 393 renal = system: RXF 393 renal
HOP-62 NSCLC = system: HOP-62 NSCLC
K-562 leukemia = system: K-562 leukemia
UO-31 renal = system: UO-31 renal
SW-620 colon = system: SW-620 colon
HOP-18 NSCLC = system: HOP-18 NSCLC
LXFL 529 NSCLC = system: LXFL 529 NSCLC
TK-10 renal = system: TK-10 renal
SK-MEL-2 melanoma = system: SK-MEL-2 melanoma
SN12C renal = system: SN12C renal
SK-MEL-5 melanoma = system: SK-MEL-5 melanoma
OVCAR-3 ovarian = system: OVCAR-3 ovarian
SK-OV-3 ovarian = system: SK-OV-3 ovarian
EKVX NSCLC = system: EKVX NSCLC
U251 CNS = system: U251 CNS
KM20L2 colon = system: KM20L2 colon
CCRF-CEM leukemia = system: CCRF-CEM leukemia
OVCAR-4 ovarian = system: OVCAR-4 ovarian
HOP-92 NSCLC = system: HOP-92 NSCLC
DMS 114 small cell lung = system: DMS 114 small cell lung
MALME-3M melanoma = system: MALME-3M melanoma
OVCAR-8 ovarian = system: OVCAR-8 ovarian
RPMI-8226 leukemia = system: RPMI-8226 leukemia
COLO 205 colon = system: COLO 205 colon
SNB-75 CNS = system: SNB-75 CNS
NCI-H226 lung = system: NCI-H226 lung
NCI-H460 lung = system: NCI-H460 lung
UACC-62 melanoma = system: UACC-62 melanoma
CAKI-1 renal = system: CAKI-1 renal
HCC-2998 colon = system: HCC-2998 colon
NCI-H23 lung = system: NCI-H23 lung
786-0 renal = system: 786-0 renal
OVCAR-5 ovarian = system: OVCAR-5 ovarian
LOX IMVI melanoma = system: LOX IMVI melanoma
DMS 273 small cell lung = system: DMS 273 small cell lung
NCI-H522 lung = system: NCI-H522 lung
SK-MEL-28 melanoma = system: SK-MEL-28 melanoma
SF-268 CNS = system: SF-268 CNS
SR leukemia = system: SR leukemia

`COc1nc(NC2OC(COC(C)=O)C(OC(C)=O)C(OC(C)=O)C2OC(C)=O)c(N=C(C)C(C)=O)c(=O)n1C` (centres undefined) gave a TGI (HL-60(TB) leukemia) greater than 100 µM, a TGI (A498 renal) greater than 100 µM and a TGI (SNB-19 CNS) greater than 100 µM. The TGI (XF 498 CNS) was greater than 100 µM, the TGI (SNB-78 CNS) was greater than 100 µM and the TGI (M14 melanoma) was greater than 100 µM. It also gave a TGI (SF-539 CNS) greater than 100 µM, a TGI (M19-MEL melanoma) greater than 100 µM and a TGI (HCT-15 colon) greater than 100 µM. It also gave a TGI (MOLT-4 leukemia) greater than 100 µM, a TGI (SF-295 CNS) greater than 100 µM and a TGI (HT29 colon) greater than 100 µM. It also gave a TGI (A549 NSCLC) greater than 100 µM, a TGI (HCT-116 colon) greater than 100 µM and a TGI (ACHN renal) greater than 100 µM. The TGI (UACC-257 melanoma) was greater than 100 µM, the TGI (DLD-1 colon) was greater than 100 µM and the TGI (KM12 colon) was greater than 100 µM. For the same compound, the TGI (IGROV1 ovarian) was greater than 100 µM, the TGI (RXF 393 renal) was greater than 100 µM and the TGI (HOP-62 NSCLC) was greater than 100 µM. The TGI (K-562 leukemia) was greater than 100 µM, the TGI (UO-31 renal) was greater than 100 µM and the TGI (SW-620 colon) was greater than 100 µM. The TGI (HOP-18 NSCLC) was greater than 100 µM, the TGI (LXFL 529 NSCLC) was greater than 100 µM and the TGI (TK-10 renal) was greater than 100 µM. For the same compound, the TGI (SK-MEL-2 melanoma) was greater than 100 µM, the TGI (SN12C renal) was greater than 100 µM and the TGI (SK-MEL-5 melanoma) was greater than 100 µM. It also gave a TGI (OVCAR-3 ovarian) greater than 100 µM, a TGI (SK-OV-3 ovarian) greater than 100 µM and a TGI (EKVX NSCLC) greater than 100 µM. It also gave a TGI (U251 CNS) greater than 100 µM, a TGI (KM20L2 colon) greater than 100 µM and a TGI (CCRF-CEM leukemia) greater than 100 µM. The TGI (OVCAR-4 ovarian) was greater than 100 µM, the TGI (HOP-92 NSCLC) was greater than 100 µM and the TGI (DMS 114 small cell lung) was greater than 100 µM. For the same compound, the TGI (MALME-3M melanoma) was greater than 100 µM, the TGI (OVCAR-8 ovarian) was greater than 100 µM and the TGI (RPMI-8226 leukemia) was greater than 100 µM. The TGI (COLO 205 colon) was greater than 100 µM, the TGI (SNB-75 CNS) was greater than 100 µM and the TGI (NCI-H226 lung) was greater than 100 µM. The TGI (NCI-H460 lung) was greater than 100 µM, the TGI (UACC-62 melanoma) was greater than 100 µM and the TGI (CAKI-1 renal) was greater than 100 µM. It also gave a TGI (HCC-2998 colon) greater than 100 µM, a TGI (NCI-H23 lung) greater than 100 µM and a TGI (786-0 renal) greater than 100 µM. For the same compound, the TGI (OVCAR-5 ovarian) was greater than 100 µM and the TGI (LOX IMVI melanoma) was greater than 100 µM.

`CC(=O)OC1CC2C(C)(C)C(=O)C=C[C@]2(C)C2CCC3(C)C(c4ccoc4)C(=O)C4OC43[C@]12C` (some centres undefined) gave a TGI (HL-60(TB) leukemia) of 29.9 µM, a TGI (A498 renal) of 42.5 µM and a TGI (SNB-19 CNS) of 80.7 µM. For the same compound, the TGI (SNB-78 CNS) was greater than 100 µM, the TGI (M14 melanoma) was 39.5 µM and the TGI (SF-539 CNS) was 40.2 µM. For the same compound, the TGI (M19-MEL melanoma) was 32.5 µM, the TGI (DMS 273 small cell lung) was 75.6 µM and the TGI (HCT-15 colon) was 29.9 µM. It also gave a TGI (MOLT-4 leukemia) of 50.8 µM, a TGI (SF-295 CNS) of 37.7 µM and a TGI (HT29 colon) of 32.1 µM. It also gave a TGI (A549 NSCLC) of 46 µM, a TGI (HCT-116 colon) of 26 µM and a TGI (ACHN renal) of 85 µM. For the same compound, the TGI (UACC-257 melanoma) was 35.1 µM, the TGI (NCI-H522 lung) was 26.9 µM and the TGI (DLD-1 colon) was 34 µM. For the same compound, the TGI (KM12 colon) was 29.3 µM, the TGI (IGROV1 ovarian) was 47.5 µM and the TGI (HOP-62 NSCLC) was 57.9 µM. For the same compound, the TGI (K-562 leukemia) was 32.6 µM, the TGI (UO-31 renal) was 37.6 µM and the TGI (SW-620 colon) was 42 µM. It also gave a TGI (HOP-18 NSCLC) greater than 100 µM, a TGI (LXFL 529 NSCLC) greater than 100 µM and a TGI (TK-10 renal) greater than 100 µM. It also gave a TGI (SK-MEL-2 melanoma) of 31.9 µM, a TGI (SN12C renal) of 30.7 µM and a TGI (SK-MEL-5 melanoma) of 30 µM. The TGI (OVCAR-3 ovarian) was 34.4 µM, the TGI (SK-OV-3 ovarian) was 43.6 µM and the TGI (EKVX NSCLC) was greater than 100 µM. It also gave a TGI (U251 CNS) of 41.6 µM, a TGI (KM20L2 colon) of 32.1 µM and a TGI (CCRF-CEM leukemia) of 58.3 µM. It also gave a TGI (OVCAR-4 ovarian) of 58.9 µM, a TGI (HOP-92 NSCLC) of 38.1 µM and a TGI (DMS 114 small cell lung) of 33.3 µM. The TGI (MALME-3M melanoma) was 40.3 µM, the TGI (OVCAR-8 ovarian) was 64.4 µM and the TGI (RPMI-8226 leukemia) was 22.5 µM. The TGI (COLO 205 colon) was 34.2 µM, the TGI (SK-MEL-28 melanoma) was 32 µM and the TGI (SNB-75 CNS) was 75.3 µM. It also gave a TGI (NCI-H226 lung) of 32.7 µM, a TGI (SF-268 CNS) of 53.9 µM and a TGI (NCI-H460 lung) of 33.3 µM. For the same compound, the TGI (UACC-62 melanoma) was 34.3 µM, the TGI (CAKI-1 renal) was greater than 100 µM and the TGI (HCC-2998 colon) was 30.7 µM. For the same compound, the TGI (NCI-H23 lung) was 31.2 µM, the TGI (786-0 renal) was 69.3 µM and the TGI (SR leukemia) was 39.4 µM. It also gave a TGI (OVCAR-5 ovarian) of 60.9 µM and a TGI (LOX IMVI melanoma) of 25.9 µM.

— PubChem BioAssay (NCI)
